Several values for one entry are separate records, joined by “and”; a condition that tells them apart may be missing. Identical values can stand only once.

The target of the first experiment is T1, HCV polymerase (Hepatitis C virus genotype 1b, UniProt Q9WMX2).
T1 construct: (His)6 (C)
Nature of the experiment: biochemical. The settings on record: NS5B polymerase IC50 μM, polymerase assay of Biological Example 1.
In general, IC50 refers to the concentration that inhibits the measured activity by half. For `CCOP(C)(=O)CCCCN(c1nc2oc(-c3ccc(CC)cc3)c(C(=O)NC)c2cc1I)S(C)(=O)=O` (centres unmarked) [Example 23.9991, ethyl 4-(N-(2-(4-ethylphenyl)-5-iodo-3-(methylcarbamoyl)furo[2,3-b]pyridin-6-yl)methylsulfonamido) butyl(methyl)phosphinate], it took 0.026 µM to reach half-maximal inhibition (IC50).

`CCOP(C)(=O)CCCCCN(c1nc2oc(-c3ccc(CC)cc3)c(C(=O)NC)c2cc1I)S(C)(=O)=O` (centres unmarked) [Example 23.9992, ethyl 5-(N-(2-(4-ethylphenyl)-5-iodo-3-(methylcarbamoyl)furo[2,3-b]pyridin-6-yl)methylsulfonamido)pentyl (methyl)phosphinate] displayed an IC50 of 0.02 µM.

`CCOP(C)(=O)CCCCCN(c1nc2oc(-c3ccc(C)cc3)c(C(=O)NC)c2cc1I)S(C)(=O)=O` (centres unmarked) [Example 23.9994, ethyl 5-(N-(5-iodo-3-(methylcarbamoyl)-2-p-tolylfuro[2,3-b]pyridin-6-yl)methylsulfonamido)pentyl (methyl)phosphinate] displayed an IC50 of 0.038 µM.

In the case of `CCOP(C)(=O)CCCCN(c1nc2oc(-c3ccc(C)cc3)c(C(=O)NC)c2cc1I)S(C)(=O)=O` (centres unmarked) [Example 23.9995, ethyl 4-(N-(5-iodo-3-(methylcarbamoyl)-2-p-tolylfuro[2,3-b]pyridin-6-yl)methylsulfonamido)butyl (methyl)phosphinate], the IC50 was 0.017 µM.

The compound `CCc1ccc(-c2oc3nc(N(CCCCCP(C)(=O)O)S(C)(=O)=O)c(I)cc3c2C(=O)NC)cc1` [Example 23.9997, 5-(N-(2-(4-ethylphenyl)-5-iodo-3-(methylcarbamoyl)furo[2,3-b]pyridin-6-yl)methylsulfonamido)pentyl (methyl)phosphinic acid] gave an IC50 of 0.012 µM.

The same experiment, now with this note: polymerase assay of Biological Example 1; read-out: NS5B polymerase IC50.
As for `CCc1cc2c(C(=O)NC)c(-c3ccc(F)cc3)oc2nc1N(CCN(C)S(=O)(=O)c1ccccc1)S(C)(=O)=O` [Example 22.995, 5-ethyl-2-(4-fluorophenyl)-N-methyl-6-(N-(2-(N-methylphenylsulfonamido)ethyl)methylsulfonamido)furo[2,3-b]pyridine-3-carboxamide], the half-inhibitory concentration (IC50) came to 0.024 µM.

Turning to `CCc1cc2c(C(=O)NC)c(-c3ccc(F)cc3)oc2nc1N(CCCN1CCCC1=O)S(C)(=O)=O` [Example 22.996, 5-ethyl-2-(4-fluorophenyl)-N-methyl-6-(N-(3-(2-oxopyrrolidin-1-yl)propyl)methylsulfonamido)furo[2,3-b]pyridine-3-carboxamide], the IC50 was determined as 0.059 µM.

Regarding `CCc1cc2c(C(=O)NC)c(-c3ccc(F)cc3)oc2nc1N(CCCCl)S(C)(=O)=O` [Example 22.997, 6-(N-(3-chloropropyl)methylsulfonamido)-5-ethyl-2-(4-fluorophenyl)-N-methylfuro[2,3-b]pyridine-3-carboximide], the IC50 is 0.083 µM.

For the compound `CCc1cc2c(C(=O)NC)c(-c3ccc(F)cc3)oc2nc1N(CCCO)S(C)(=O)=O` [Example 23.2, 5-ethyl-2-(4-fluorophenyl)-6-(N-(3-hydroxypropyl)methylsulfonamido)-N-methylfuro[2,3-b]pyridine-3-carboxamide], the IC50 was 0.144 µM.

As to `CCc1cc2c(C(=O)NC)c(-c3ccc(F)cc3)oc2nc1N(CCCN(C)S(C)(=O)=O)S(C)(=O)=O` [Example 23.3, 5-ethyl-2-(4-fluorophenyl)-N-methyl-6-(N-(3-(N-methylmethylsulfonamido)propyl)methylsulfonamido) furo[2,3-b]pyridine-3-carboxamide], the IC50 was 0.058 µM.

For `CCc1cc2c(C(=O)NC)c(-c3ccc(F)cc3)oc2nc1N(CCCNS(C)(=O)=O)S(C)(=O)=O` [Example 23.4, 5-ethyl-2-(4-fluorophenyl)-N-methyl-6-(N-(3-(methylsulfonamido)propyl)methylsulfonamido)furo[2,3-b]pyridine-3-carboxamide], the IC50 came out at 0.125 µM.

As for `CNC(=O)c1c(-c2ccc(F)cc2)oc2nc(N(CCCn3ccnc3)S(C)(=O)=O)c(I)cc12` [Example 23.5, 6-(N-(3-(1H-imidazol-1-yl)propyl)methylsulfonamido)-2-(4-fluorophenyl)-5-iodo-N-methylfuro[2,3-b]pyridine-3-carboxamide], the IC50 is 0.151 µM and 0.035 µM.

In the case of `CCc1cc2c(C(=O)NC)c(-c3ccc(F)cc3)oc2nc1N(CCCCS(=O)(=O)c1ccccc1)S(C)(=O)=O` [Example 23.8, 5-ethyl-2-(4-fluorophenyl)-N-methyl-6-(N-(4-(phenylsulfonyl)butyl)methylsulfonamido)furo[2,3-b]pyridine-3-carboxamide], the IC50 was 0.058 µM.

On to `CCc1cc2c(C(=O)NC)c(-c3ccc(F)cc3)oc2nc1N(CCCN(C)S(=O)(=O)c1ccccc1)S(C)(=O)=O` [Example 23.9, 5-ethyl-2-(4-fluorophenyl)-N-methyl-6-(N-(3-(N-methylphenylsulfonamido)propyl)methylsulfonamido) furo[2,3-b]pyridine-3-carboxamide], for which the IC50 is 0.074 µM.

As for `CCc1cc2c(C(=O)NC)c(-c3ccc(F)cc3)oc2nc1N(CCCS(=O)(=O)C(C)(C)C)S(C)(=O)=O` [Example 23.93, 6-(N-(3-(tert-butylsulfonyl)propyl)methylsulfonamido)-5-ethyl-2-(4-fluorophenyl)-N-methylfuro[2,3-b]pyridine-3-carboxamide], the IC50 was found to be 0.044 µM.

Turning to `CCc1cc2c(C(=O)NC)c(-c3ccc(F)cc3)oc2nc1N(CCCCC1=C(O)CCC1=O)S(C)(=O)=O` [Example 23.94, 5-ethyl-2-(4-fluorophenyl)-6-(N-(4-(2-hydroxy-5-oxocyclopent-1-enyl)butyl)methylsulfonamido)-N-methylfuro[2,3-b]pyridine-3-carboxamide], the IC50 worked out at 0.044 µM.

On to `CCc1cc2c(C(=O)NC)c(-c3ccc(F)cc3)oc2nc1N(CCCC1=C(O)CCC1=O)S(C)(=O)=O` [Example 23.95, 5-ethyl-2-(4-fluorophenyl)-6-(N-(3-(2-hydroxy-5-oxocyclopent-1-enyl)propyl)methylsulfonamido)-N-methylfuro[2,3-b]pyridine-3-carboxamide], for which the IC50 is 0.029 µM.

For `CCc1cc2c(C(=O)NC)c(-c3ccc(F)cc3)oc2nc1N(CCCS(=O)(=O)C(F)(F)F)S(C)(=O)=O` [Example 23.96, 5-ethyl-2-(4-fluorophenyl)-N-methyl-6-(N-(3-(trifluoromethylsulfonyl)propyl)methylsulfonamido) furo[2,3-b]pyridine-3-carboxamide], the concentration for half-maximal inhibition (IC50) came to 0.189 µM.

For the compound `CCc1cc2c(C(=O)NC)c(-c3ccc(F)cc3)oc2nc1N(CCCCS(=O)(=O)C(F)(F)F)S(C)(=O)=O` [Example 23.97, 5-ethyl-2-(4-fiuorophenyl)-N-methyl-6-(N-(4-(trifluoromethylsulfonyl)butyl)methylsulfonamido) furo[2,3-b]pyridine-3-carboxamide], the IC50 turned out to be 0.035 µM.

As to `CCc1cc2c(C(=O)NC)c(-c3ccc(F)cc3)oc2nc1N(CCCS(=O)(=O)C1CC1)S(C)(=O)=O` [Example 23.991, 6-(N-(3-(cyclopropylsulfonyl)propyl)methylsulfonamido)-5-ethyl-2-(4-fluorophenyl)-N-methylfuro[2,3-b]pyridine-3-carboxamide], the IC50 was determined as 0.061 µM.

Turning to `CCc1cc2c(C(=O)NC)c(-c3ccc(F)cc3)oc2nc1N(CCCS(=O)(=O)CC)S(C)(=O)=O` [Example 23.992, 5-ethyl-6-(N-(3-(ethylsulfonyl)propyl)methylsulfonamido)-2-(4-fluorophenyl)-N-methylfuro[2,3-b] pyridine-3-carboxamide], the IC50 is 0.067 µM.

In the case of `CNC(=O)c1c(-c2ccc(F)cc2)oc2nc(N(CCCNS(=O)(=O)c3ccccc3[N+](=O)[O-])S(C)(=O)=O)c(I)cc12` [Example 23.993, 2-(4-fluorophenyl)-5-iodo-N-methyl-6-(N-(3-(2-nitrophenylsulfonamido)propyl)methylsulfonamido) furo[2,3-b]pyridine-3-carboxamide], the half-maximal inhibitory concentration (IC50) stood at 0.125 µM.

`CNC(=O)c1c(-c2ccc(F)cc2)oc2nc(N(CCn3ccnc3)S(C)(=O)=O)c(I)cc12` [Example 23.995, 6-(N-(2-(1H-imidazol-1-yl)ethyl)methylsulfonamido)-2-(4-fluorophenyl)-5-iodo-N-methylfuro[2,3-b]pyridine-3-carboxamide]: the IC50 was determined as 0.114 µM.

For the compound `CNC(=O)c1c(-c2ccc(F)cc2)oc2nc(N(CCN(C)S(C)(=O)=O)S(C)(=O)=O)c(I)cc12` [Example 23.996, 2-(4-fluorophenyl)-5-iodo-N-methyl-6-(N-(2-(N-methylmethylsulfonamido)ethyl)methylsulfonamido) furo[2,3-b]pyridine-3-carboxamide], the IC50 was 0.242 µM.

For `CCc1cc2c(C(=O)NC)c(-c3ccc(F)cc3)oc2nc1N(CCCN(C)C(C)=O)S(C)(=O)=O` [Example 23.997, 5-ethyl-2-(4-fluorophenyl)-N-methyl-6-(N-(3-(N-methylacetamido)propyl)methylsulfonamido)furo[2,3-b]pyridine-3-carboxamide], the IC50 was found to be 0.058 µM.

Turning to `CCc1cc2c(C(=O)NC)c(-c3ccc(F)cc3)oc2nc1N(CCCN(C)C(=O)c1ccccc1)S(C)(=O)=O` [Example 23.998, 5-ethyl-2-(4-fluorophenyl)-N-methyl-6-(N-(3-(N-methylbenzamido)propyl)methylsulfonamido)furo[2,3-b]pyridine-3-carboxamide], the IC50 stood at 0.184 µM.

On to `CCc1cc2c(C(=O)NC)c(-c3ccc(F)cc3)oc2nc1N(CCC[S+](C)[O-])S(C)(=O)=O` (centres unmarked) [Example 23.999, 5-ethyl-2-(4-fluorophenyl)-N-methyl-6-(N-(3-(methylsulfinyl)propyl)methylsulfonamido)furo[2,3-b]pyridine-3-carboxamide], for which the IC50 turned out to be 0.079 µM.

For `CCc1ccc(-c2oc3nc(N(CCCCCO)S(C)(=O)=O)c(I)cc3c2C(=O)NC)cc1` [Example 23.9993, 2-(4-ethylphenyl)-6-(N-(5-hydroxypentyl)methylsulfonamido)-5-iodo-N-methylfuro[2,3-b]pyridine-3-carboxamide], the IC50 worked out at 0.026 µM.

`CNC(=O)c1c(-c2ccc(C)cc2)oc2nc(N(CCCCO)S(C)(=O)=O)c(I)cc12` [Example 23.9996, 6-(N-(4-hydroxybutyl)methylsulfonamido)-5-iodo-N-methyl-2-p-tolylfuro[2,3-b]pyridine-3-carboxamide]: the IC50 stood at 0.019 µM.

For the origin of these results see patent US20120015907A1, “Furopyridine compounds and uses thereof” (NOVARTIS AG, priority 2010, published 2012).
